Experimental data published in patent publication US8883798B2, “Pyrimidine compounds inhibiting the formation of nitric oxide and prostaglandin E2, method of production thereof and use thereof” (Ustav Organicke Chemie a Biochemie Akademie Ved CR, V.V.I., priority 2011, dated 2014).

How the values were obtained:
[1] = test system: production of nitric oxide (NO); assay: Production of nitric oxide (NO) in cultures of mouse peritoneal cells stimulated with IFN-γ plus LPS (Griess reagent); type: cell-based, mice; settings: substance 50 μmol·l^−1, IFN-g plus LPS, 24 h
Protocol: (§1) Under in vitro conditions, the effect of the pyrimidine compounds according to this invention was tested in terms of the production of nitric oxide (NO) and in terms of the production of prostaglandin E2 (PGE2) in cultures of the peritoneal cells of mice.
NO is a product of the metabolism of L-arginine, quickly changes to […], which are then measured using the Griess reagent system. Under normal conditions, the production of NO is practically zero. It only occurs after some stimulation. In these experiments, interferon-gamma (IFN-γ) and bacterial lipopolysacharide (LPS) were used as stimulators. The values of NO induced in this way fluctuated in the individual experiments in a range from 52 to 89 μmol·l^−1; for the purposes of comparison between the experiments they were considered as 100%. The production of NO after the application of the substances was expressed in percentage with respect to the control values. (The lower the value, the higher the inhibition effect of the substances on NO production.) IC50 are the concentrations of the substances reducing the production of NO by 50% with respect to the controls.
(§2) Experiments were performed on mice peritoneal cells C57BL/6 (Charles River, Germany—AnLabu).
(§3) NO production was induced using IFN-g (5000 pg/mL) plus LPS (100 pg/mL); evaluated (Griess reagent) after 24 h of the cell cultivation (2×10^6/mL). PGE2 was induced using LPS (10 ng/mL); evaluated (ELISA) following 6 h cultivation of cells (3×10^6/mL). Cell longevity was evaluated using WST-1 (tetrazolium salt), following 24 h cultivation of cells (1×10^6/mL). The values mentioned in the table represent the effects of the substances tested in a concentration of 50 μmol·l^−1.

[2] = test system: production of prostaglandin E2 (PGE2); assay: Production of prostaglandin E2 (PGE2) in cultures of mouse peritoneal cells stimulated with LPS (ELISA kit); type: cell-based, mice; settings: for Production of prostaglandins in % of the controls: Table 3A, substance 50 μmol·l^−1, 6 h
Protocol: as §1
The influence on the production of prostaglandin E2 (PGE2) in vitro caused by the activity of the pyrimidine compounds according to the submitted invention was determined in cultures of the peritoneal cells of mice using a commercial kit (R&DSystems). The concentrations of PGE2 after lipopolysacharide (LPS) stimulation reached in the individual experiments values in a range of 22 to 91 ng·ml^−1 and for the purposes of comparison between the experiments were considered as 100%. The influence of the substances on the production of PGE2 was evaluated in percentage with respect to the control values.
as §2, §3

peritoneal cells of mice = assay: Cell viability of mouse peritoneal cells (WST-1 kit); type: cell-based; settings: substance 50 μmol·l^−1, 24 h; for Cell viability in % of the controls: Table 3A; for Cell viabilities in % of the controls: Table 3B
Protocol: Cell viability was determined in the standard way using a WST-1 kit (Roche). The values of the viability of the control cells were for the purposes of comparison between experiments considered as 100%. The influence of the substances on the longevity of the cells was evaluated in percentage with respect to the control values.
as §2, §3

Structure (SMILES) | Production of nitric oxide in % of the controls ([1]; Table 3A) | Production of prostaglandins in % of the controls [2] | Cell viability in % of the controls (peritoneal cells of mice) | Production of nitric oxide in % of the controls ([1]; Table 3B) | Cell viabilities in % of the controls (peritoneal cells of mice) | Production of prostaglandins IC50 (μmol · 1^−1) average value and range of values ([2]; Table 3B, 6 h)
Cc1c(Cl)nc(N=CN(C)C)nc1Cl [Substance 13] | 21.39 ± 4.78 % of the controls | 59.98 ± 1.82 % of the controls | 77.29 ± 3.69 % of the controls | – | – | –
CCc1c(Cl)nc(N=CN(C)C)nc1Cl [Substance 14] | 23.24 ± 6.78 % of the controls | 30.40 ± 0.80 % of the controls | 162.93 ± 14.68 % of the controls | – | – | –
CCCc1c(Cl)nc(N=CN(C)C)nc1Cl [Substance 15] | 8.42 ± 4.75 % of the controls | 14.76 ± 0.52 % of the controls | 109.35 ± 8.88 % of the controls | – | – | –
CC(C)c1c(Cl)nc(N=CN(C)C)nc1Cl [Substance 16] | 7.32 ± 2.68 % of the controls | 32.10 ± 2.31 % of the controls | 134.83 ± 16.51 % of the controls | – | – | –
C=CCc1c(Cl)nc(N=CN(C)C)nc1Cl [Substance 17] | 6.2 ± 0.91 % of the controls | 15.72 ± 0.46 % of the controls | 136.13 ± 11.32 % of the controls | – | – | –
C#CCc1c(Cl)nc(N=CN(C)C)nc1Cl [Substance 18] | 0.90 ± 0.22 % of the controls | 78.55 ± 0.38 % of the controls | 67.89 ± 7.41 % of the controls | – | – | –
CCC(C)c1c(Cl)nc(N=CN(C)C)nc1Cl (stereo not drawn) [Substance 21] | 0.69 ± 0.12 % of the controls | 8.14 ± 0.07 % of the controls | 122.65 ± 14.39 % of the controls | – | – | –
CCCCCCc1c(Cl)nc(N=CN(C)C)nc1Cl [Substance 22] | 61.34 ± 3.91 % of the controls | – | – | – | – | –
CN(C)C=Nc1nc(Cl)c(-c2ccccc2)c(Cl)n1 [Substance 24] | 4.97 ± 2.00 % of the controls | 18.45 ± 13.68 % of the controls | 80.00 ± 11.61 % of the controls | – | – | –
Cc1c(Cl)nc(N)nc1Cl [Substance 25] | 47.30 ± 13.48 % of the controls | – | 98.55 ± 17.60 % of the controls | – | – | –
CCc1c(Cl)nc(N)nc1Cl [Substance 26] | 48.59 ± 9.49 % of the controls | – | 91.53 ± 10.78 % of the controls | – | – | –
CCCc1c(Cl)nc(N)nc1Cl [Substance 27] | 46.98 ± 10.25 % of the controls | 31.73 ± 4.35 % of the controls | 87.86 ± 9.18 % of the controls | – | – | –
CC(C)c1c(Cl)nc(N)nc1Cl [Substance 29] | 36.97 ± 8.22 % of the controls | – | 91.18 ± 9.90 % of the controls | – | – | –
CCC(C)c1c(Cl)nc(N)nc1Cl (stereo not drawn) [Substance 30] | 47.48 ± 6.22 % of the controls | – | 111.90 ± 9.63 % of the controls | – | – | –
Nc1nc(Cl)c(-c2ccccc2)c(Cl)n1 [Substance 31] | 36.11 ± 8.38 % of the controls | – | 82.53 ± 8.73 % of the controls | – | – | –
C#CCc1c(Cl)nc(N)nc1Cl [Substance 33] | 35.98 ± 14.08 % of the controls | – | 90.58 ± 17.05 % of the controls | – | – | –
CCC(C)c1c(I)nc(N)nc1I (stereo not drawn) [Substance 36] | 2.80 ± 1.28 % of the controls | – | – | – | – | –
CCC(C)c1c(Cl)nc(N)nc1I (stereo not drawn) [Substance 37] | 6.67 ± 5.15 % of the controls | – | 49.11 ± 3.29 % of the controls | – | – | –
Nc1nc(I)c(Cc2ccccc2)c(I)n1 [Substance 38] | 34.80 ± 0.31 % of the controls | – | 78.60 ± 5.33 % of the controls | – | – | –
Nc1nc(Cl)c(Cc2ccccc2)c(I)n1 [Substance 39] | 18.30 ± 7.66 % of the controls | – | 67.81 ± 3.08 % of the controls | – | – | –

Structure (SMILES) | Production of nitric oxide in % of the controls ([1]; Table 3A) | Production of prostaglandins in % of the controls [2] | Cell viability in % of the controls (peritoneal cells of mice) | Production of nitric oxide in % of the controls ([1]; Table 3B) | Cell viabilities in % of the controls (peritoneal cells of mice) | Production of prostaglandins IC50 (μmol · 1^−1) average value and range of values ([2]; Table 3B, 6 h)
Nc1nc(Br)c(Cc2ccccc2)c(Br)n1 [Substance 40] | 32.45 ± 10.99 % of the controls | – | 90.18 ± 3.75 % of the controls | – | – | –
CCCCc1c(Cl)nc(N)nc1-c1ccccc1 [Substance 41] | 47.82 ± 6.08 % of the controls | – | 108.24 ± 7.40 % of the controls | – | – | –
CCCCc1c(Cl)nc(N)nc1-c1ccsc1 [Substance 42] | 63.18 ± 0.89 % of the controls | – | 157.36 ± 5.16 % of the controls | – | – | –
CCCCc1c(Cl)nc(N)nc1-c1cccnc1 [Substance 43] | 58.68 ± 0.92 % of the controls | – | 166.77 ± 22.51 % of the controls | – | – | –
CCCCc1c(Cl)nc(N)nc1-c1cc2ccccc2o1 [Substance 44] | 62.62 ± 0.19 % of the controls | – | 147.78 ± 5.90 % of the controls | – | – | –
CCCCc1c(-c2ccccc2)nc(N)nc1-c1ccccc1 [Substance 45] | 73.29 ± 1.40 % of the controls | – | 297.33 ± 23.17 % of the controls | – | – | –
CCCCc1c(-c2cccnc2)nc(N)nc1-c1cccnc1 [Substance 46] | 70.00 ± 4.82 % of the controls | – | 107.08 ± 2.94 % of the controls | – | – | –
CCCCc1c(-c2cc3ccccc3o2)nc(N)nc1-c1cc2ccccc2o1 [Substance 47] | 41.23 ± 18.49 % of the controls | – | 75.01 ± 13.63 % of the controls | – | – | –
CCCCCCc1c(Cl)nc(NC=O)nc1Cl [Substance 55] | 14.77 ± 9.19 % of the controls | – | 144.97 ± 18.27 % of the controls | – | – | –
C#CCc1c(Cl)nc(NC=O)nc1Cl [Substance 58] | 0.69 ± 0.26 % of the controls | 12.30 ± 0.54 % of the controls | – | – | – | –
C=C(Cl)Cc1c(Cl)nc(NC=O)nc1Cl [Substance 60] | 0.13 ± 0.13 % of the controls | – | 37.13 ± 1.27 % of the controls | – | – | –
CCCCc1c(Cl)ncnc1Cl [Substance 61] | 27.38 ± 1.88 % of the controls | – | 73.73 ± 0.99 % of the controls | – | – | –
CCCCc1c(Cl)nc(C)nc1Cl [Substance 62] | 41.21 ± 5.50 % of the controls | – | 80.93 ± 0.84 % of the controls | – | – | –
CCCCc1c(Cl)nc(N(C)C)nc1Cl [Substance 63] | 64.97 ± 2.92 % of the controls | – | – | – | – | –
CCCCc1c(-c2cccnc2)nc(N)nc1-c1cccnc1 [Substance 81] | – | – | – | 50.07 ± 3.04; n = 6 % of the controls | 82.21 ± 7.34; n = 8 % of the controls | –
CCCCc1c(-c2ccncc2)nc(N)nc1-c1ccc(OC)cc1 [Substance 83] | – | – | – | 63.81 ± 5.32; n = 6 % of the controls | 95.41 ± 4.70; n = 8 % of the controls | –
CCCCc1c(-c2ccncc2)nc(N)nc1-c1cccnc1 [Substance 84] | – | – | – | 47.55 ± 7.12; n = 6 % of the controls | 109.54 ± 4.48; n = 8 % of the controls | –
CCCCc1c(Cl)nc(N)nc1-c1ccncc1 [Substance 85] | – | – | – | 49.34 ± 4.20; n = 4 % of the controls | 87.62 ± 6.58; n = 4 % of the controls | –
CCCCc1c(Cl)nc(N)nc1-c1cccs1 [Substance 93] | – | – | – | – | 74.47 ± 0.81; n = 4 % of the controls | 11.47 ± 2.73; n = 4 μmol · 1^−1
